Laboratory results from patent US8889707B2, “Treatment of addiction” (priority 2012, dated 2014).

Tested on: Male Sprague-Dawley rats trained for cocaine-CPP
Assay: Cocaine-CPP memory retrieval test, PJ-34 infused before testing
Assay type: in vivo, rat
Conditions: intra-CeA infusion, p<0.01

## CN(C)CC(=O)Nc1ccc2[nH]c(=O)c3ccccc3c2c1.Cl [PJ-34, N-(6-Oxo-5,6-dihydrophenanthridin-2-yl)-(N,N-dimethylamino)acetamide hydrochloride]
50 microM, 1.2 microl, tested 30 min after infusion, vs vehicle, FIG. 4A
  Preference for the cocaine compartment: abolished
Test 24 hours later
  Abolished preference for the cocaine compartment in post-conditioning test: persisted
Test 7 days later
  Abolished preference for the cocaine compartment in post-conditioning test: persisted
Test 14 days later
  Abolished preference for the cocaine compartment in post-conditioning test: persisted
